pIC50: −log10 of the molar value. Ends that are not written are not given here.
Columns and labels:
[1] = system: MCF-10A cells; test: Cell proliferation assay (WST-1), AGM-330-PTX; format: cell-based; settings: Homo sapiens, 48 h
[2] = system: MDA-MB-231-luc cells; test: Tumor suppression in breast cancer xenograft model; format: in vivo, NPG mice; settings: for average tumor volume: tail vein
Experimental: FIG. 14B is a schematic representation of the experimental protocol. Here, anesthetized 6-week-old […] NPG mice were inoculated with a 1:1 mix of Matrigel and 1×10^6 MDA-MB-231-luc cells into the mammary fat pad. […] Nuclei were stained with DAPI (blue), and the scale bar is 50 μm. Bar graphs represent the mean±SD, and statistical analyses were performed by one-way ANOVA with Dunnett's multiple comparison. *, **, and *** indicate P<0.05, P<0.01, and P<0.001, respectively. […]
All animal experiments were performed in accordance with IACUC guidelines (GIST-2019-040). For tumorigenesis experiments, anesthetized 6-week-old female NOD-scid Il2rg^−/− mice (NPG™, VITALSTAR) were inoculated in the mammary fat pad with 1×10^6 MDA-MB-231-luc cells in a volume of 100 μl (n=5˜6 for each group). After tumor cell inoculation, when the tumor volume reached approximately 100 mm^3, the mice were randomly divided into the following five groups: (i) control, (ii) low-dose paclitaxel (2 mg/kg), (iii) high-dose paclitaxel (10 mg/kg), (iv) AGM-330 (16.68 mg/kg or 8.34 mg/kg), and (v) AGM-330-PTX (19.05 mg/kg or 10.71 mg/kg). The tumor size was measured twice a week, and the tumor volume was calculated with the following formula:
For the bioluminescent imaging experiment, D-luciferin (150 mg/kg; PerkinElmer) was intraperitoneally injected into each mouse, and an IVIS 100 imaging system (Xenogen, Corporation, Alameda, CA) was used for bioluminescent monitoring. Mice were anesthetized with vaporized isoflurane (BK Pharm, Ilsan, Korea) and placed in an imaging chamber. After 10 min, each animal was imaged with an exposure time of 1 min. All bioluminescent image data were provided by Living Image software (version 4.5.2, PerkinElmer). Photons detected from tumors were converted to average radiance values (photon/see/cm^2/sr), which are quantitative data obtained from a region of intensity (ROI) and include the photons emitted by bioluminescent cells from an assigned rectangular area over the whole body of each mouse.
Following in vitro proliferation analysis on cancer lines, the present inventors investigated whether AGM-330t-PTX could be a potential therapeutic agent in vivo. The present inventors inoculated MDA-MB-231-luc cells into the mammary fat pad of NPG mice. After the subcutaneous tumors grew to 100 mm^3, comparative efficacy studies were performed by dividing the animals into five groups (n=5/group) treated with vehicle (PBS), AGM-330t (16.68 mg/kg), PTX (2 or 10 mg/kg, respectively) or AGM-330t-PTX (19.05 mg/kg) twice a week by tail vein injection (FIG. 14B). Tumor growth was monitored by measuring volumes twice a week with a caliber rule over the course of 3 weeks.
The present inventors also performed histological staining of the excised tumors, and an independent pathologist evaluated the slides.

[3] = system: MCF-10A and CCD-18Co; test: FACS binding of AGM-330-FITC to normal cells; format: cell-based, human; settings: 2 h of incubation, versus cancer cells
[4] = target: NCL (Homo sapiens, UniProt P19338); test: Double-immunofluorescence confocal microscopy with anti-NCL antibody; format: cell-based; design: GFP-NCL (residues 1-710); expressed in transfected cells; host or cells: HEK293T; settings: 5 μmol/l, 1 h of incubation
NCL, sequence (P19338 whole entry, the tested form may be a part): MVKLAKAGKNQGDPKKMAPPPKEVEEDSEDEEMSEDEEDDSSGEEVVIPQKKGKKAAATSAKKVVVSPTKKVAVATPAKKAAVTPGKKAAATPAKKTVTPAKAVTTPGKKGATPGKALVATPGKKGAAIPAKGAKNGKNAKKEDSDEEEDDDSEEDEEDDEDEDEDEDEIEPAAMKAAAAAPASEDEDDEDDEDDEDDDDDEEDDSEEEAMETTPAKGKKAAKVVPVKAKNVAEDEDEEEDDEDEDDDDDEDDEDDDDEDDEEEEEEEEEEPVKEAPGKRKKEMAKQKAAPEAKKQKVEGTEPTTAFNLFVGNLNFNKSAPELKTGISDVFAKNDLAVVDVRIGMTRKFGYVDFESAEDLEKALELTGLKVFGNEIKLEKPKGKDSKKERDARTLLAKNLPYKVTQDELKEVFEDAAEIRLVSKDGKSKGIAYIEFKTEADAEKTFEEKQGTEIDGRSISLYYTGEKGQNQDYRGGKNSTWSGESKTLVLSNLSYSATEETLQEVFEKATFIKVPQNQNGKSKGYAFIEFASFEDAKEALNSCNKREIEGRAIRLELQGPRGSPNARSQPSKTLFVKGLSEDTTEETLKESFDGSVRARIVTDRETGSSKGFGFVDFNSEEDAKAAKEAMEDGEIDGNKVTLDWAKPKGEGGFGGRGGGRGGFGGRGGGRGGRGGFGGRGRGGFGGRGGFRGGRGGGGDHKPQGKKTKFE
Experimental: FIGS. 11A and 11B show the results of fluorescence confocal microscopy of multiple cancer and normal cells. […] Merge represents AGM-330-FITC, NCL, and nuclear staining by DAPI. AGM-330-FITC represents FITC-conjugated AGM-330. Scale bar is 20 μm. […] Here, plasma membrane, cytosol and nuclear NCL were immunoblotted using anti-NCL antibody. […] Here, MDA-MB-231 cells were transfected for 48 hours. Then, 5 μmol/l of AGM-330-FITC was added for 2 hours. Cells were washed twice with PBS and fixed with 4% paraformaldehyde. Fluorescence was observed using a fluorescent confocal microscope. AGM-330-FITC is FITC-conjugated AGM-330, and the scale bar is 20 μm. […] FIGS. 11G and 11H show in vivo fluorescence images of mice 30 min, 1 h, 6 h, and 24 h after intravenous injections of 10 nmol free Alexa680 (FIG. 11G) or 10 nmol AGM-330-Alexa680 (FIG. 11H) in MDA-MB-231-luc tumor-bearing mice. Here, fluorescence images of the major organs including the heart, spleen, lung, brain, liver, kidney, and tumors were removed from mice with different treatments. […] FIGS. 11I and 11J are graphs showing the average radiant efficiency of Alexa680-associated fluorescence from live imaging of three animals in tumors (FIG. 11I) and different organs (FIG. 11J).
The present inventors evaluated the specificity of AGM-330 to NCL with cell binding assays against different cell lines using fluorescence microscopy. […]

[5] = system: MCF-7, MDA-MB-231, HT-29, and HCT-116; test: FACS binding of AGM-330-FITC to cancer cells; format: cell-based, human; settings: 2 h, 37° C., serum-free medium
[6] = system: MDA-MB-231-luc tumor; test: In vivo near-infrared fluorescence imaging in xenograft model of human breast cancer; design: species or system mice; settings: mouse
Experimental: (§1) FIGS. 11A and 11B show the results of fluorescence confocal microscopy of multiple cancer and normal cells. Here, MCF-10A, MCF-7, MDA-MB-231 (FIG. 11A) or CCD-18Co, HT-29, and HCT-116 (FIG. 11B) cells were incubated with 5 μmol/l AGM-330-FITC for 30 min at 37° C. […] Cells were then fixed with 4% paraformaldehyde, and the nuclei were stained with DAPI. Merge represents AGM-330-FITC, NCL, and nuclear staining by DAPI. AGM-330-FITC represents FITC-conjugated AGM-330. Scale bar is 20 μm. […] Here, plasma membrane, cytosol and nuclear NCL were immunoblotted using anti-NCL antibody. […] Here, MDA-MB-231 cells were transfected for 48 hours. Then, 5 μmol/l of AGM-330-FITC was added for 2 hours. […] Fluorescence was observed using a fluorescent confocal microscope. […] FIGS. 11G and 11H show in vivo fluorescence images of mice 30 min, 1 h, 6 h, and 24 h after intravenous injections of 10 nmol free Alexa680 (FIG. 11G) or 10 nmol AGM-330-Alexa680 (FIG. 11H) in MDA-MB-231-luc tumor-bearing mice. Here, fluorescence images of the major organs including the heart, spleen, lung, brain, liver, kidney, and tumors were removed from mice with different treatments. […] FIGS. 11I and 11J are graphs showing the average radiant efficiency of Alexa680-associated fluorescence from live imaging of three animals in tumors (FIG. 11I) and different organs (FIG. 11J). […]

[7] = system: MDA-MB-231 cells; test: Confocal imaging of FITC-labeled peptides; format: cell-based, human; settings: compared with AGM-331 and AGM-332
[8] = system: MCF-10A and CCD-18Co; test: Cell-growth-on-bead assay, normal cell lines; format: cell-based, human
Experimental: (§2) Here, multiple breast and colorectal cancer cells and normal breast and colorectal cells were re-suspended at 10^6 cells/ml and incubated with beads. All experiments were repeated 3 times, and the scale bar is 200 μm. […] Here, nuclei were stained with DAPI (blue), and scale bar is 50 μm. […] Here, a whole-cell binding assay was performed to determine the cell binding of AGM-330, and the scale bar is 200 μm. […] Fmoc=9-fluorenylmethoxycarbonyl, DMF=dimethylformamide. […] Here, bar graphs represent the mean±SD, and statistical analyses were performed by one-way ANOVA with Dunnett's multiple comparison. *, **, and *** indicate P<0.05, P<0.01, and P<0.001, respectively.
(§3) The beads were washed extensively with double-distilled water and phosphate-buffered saline (PBS; Welgene Inc., Korea) before screening. Cancer cells and normal cells were detached from culture dishes with trypsin/EDTA (Gibco), washed with their corresponding culture medium, resuspended at 10^6 cells/ml, and incubated with OBOC beads in Petri dishes in a humidified CO2 incubator at 37° C. with shaking (60 rpm). Beads bound by cells appeared under a microscope as rosettes with a central bead covered by one or more layers of cells. The positive beads were picked by pipette under an inverted microscope, treated with guanidine-HCL (8 M, 20 min) to remove cells and proteins on the bead surface, and subjected to a second round of screening with normal breast epithelial cells to eliminate false positive binding. Only beads with cell binding at both rounds were sent for peptide sequencing.
(§4) To identify a novel cancer-specific peptide ligand, the present inventors synthesized about 2, 600,000 libraries using 5 g of Tentagel MB NH2 resin (200 μm, 520,000 beads/g; FIG. 3).

[9] = system: human breast cancer cell lines (MCF7 and MDA-MB-231) and human colorectal cancer cell lines (HT-29 and HCT-116); test: Cell-growth-on-bead assay with resynthesized AGM-330 beads; format: cell-based; settings: MCF7, MDA-MB-231, HT-29, HCT-116
Experimental: as §2
The beads were washed extensively with double-distilled water and phosphate-buffered saline (PBS; Welgene Inc., Korea) before screening. Cancer cells and normal cells were detached from culture dishes with trypsin/EDTA (Gibco), washed with their corresponding culture medium, resuspended at 10^6 cells/ml, and incubated with OBOC beads in Petri dishes in a humidified CO2 incubator at 37° C. with shaking (60 rpm). Beads bound by cells appeared under a microscope as rosettes with a central bead covered by one or more layers of cells. […]

[10] = system: MDA-MB-231; test: Whole-cell binding (cell-growth-on-bead) assay of screened peptide beads; format: cell-based, human
Experimental: as §2, §3, §4

[11] = system: MCF-10A; test: as above; format: cell-based, human
Experimental: as §2, §3, §4

[12] = system: MDA-MB-231 cells; test: AGM-330 binding to cells after NCL knockdown (fluorescence confocal microscopy); format: cell-based, human
Experimental: as §1

**Q.** With `CC(=O)O[C@H]1C(=O)[C@@]2(C)[C@H]([C@H](OC(=O)c3ccccc3)[C@]3(O)C[C@H](OC(=O)[C@H](O)[C@@H](NC(=O)c4ccccc4)c4ccccc4)C(C)=C1C3(C)C)[C@]1(OC(C)=O)CO[C@@H]1C[C@@H]2O` [PTX, Paclitaxel, reference compound] as the compound, how does the pIC50 [1] read?
**A.** 4.66

**Q.** What about the average tumor volume ([2]; 2 mg/kg twice a week, n=5) of the same compound?
**A.** 1671±199 mm^3

**Q.** And the “final average tumor weight” value ([2]; 2 mg/kg, n=5)?
**A.** 2.1 ± 0.4 g

**Q.** And the average tumor volume ([2]; 10 mg/kg twice a week, day 21, n=5)?
**A.** 988±78 mm^3

**Q.** What about the “final average tumor weight” value ([2]; 10 mg/kg, n=5) of the same compound?
**A.** 1.5 ± 0.1 g

**Q.** How did the “binding to normal cells (MFI)” value [3] turn out when “AGM-330-FITC (RHGAMVYLK; also: FITC-labelled (site not given here))” was run?
**A.** significant decrease in binding

**Q.** What about the “colocalization with NCL staining” value [4] of the same compound?
**A.** overlap between NCL and AGM-330-FITC

**Q.** What about the “cancer cell binding (increase in MFI relative to untreated cells)” value [5] of the same compound?
**A.** significant cancer cell binding

**Q.** “RHGAMVYLK [AGM-330, name also used for its PEGylated MAP dendrimeric forms]” was tested. Which “distribution in tumor tissue versus normal organs (NIRF images)” value [6] did it give?
**A.** mainly accumulated throughout the tumor tissue rather than normal organs

**Q.** What about the “fluorescence signals of FITC-labeled peptide on MDA-MB-231 cells” value [7] of the same compound?
**A.** strongest fluorescence signals

**Q.** What about the “binding to normal cell lines MCF-10A and CCD-18Co” value [8] of the same compound?
**A.** bound either very weakly or not at all

**Q.** And the “time until beads were fully covered by cancer cell lines” value [9]?
**A.** ≤ 15 min

**Q.** And the “difference in the average tumor volume versus vehicle (PBS)-treated mice” value ([2]; 16.68 mg/kg)?
**A.** no significant difference

**Q.** What about the “binding to MDA-MB-231” value [10] of the same compound?
**A.** strong preferential binding

**Q.** And the “binding to the human normal breast cell line MCF-10A” value [11]?
**A.** no or only weak binding

**Q.** And the “fluorescence signal (AGM-330 binding) in siNCL1-treated cells” value [12]?
**A.** little or no fluorescence signal

Source: patent US20250032629A1, “NOVEL NUCLEOLIN-BINDING PEPTIDE AND USE THEREOF” (ANYGEN CO., LTD., priority 2020, published 2025)
